Assay results from patent US20090203678A1, “PHARMACEUTICAL COMPOSITIONS FOR THE TREATMENT OF PROTOZOAN PARASITIC DISEASES” (priority 2006, published 2009).
Peptide text beside a SMILES is read from it. * marks the point of attachment. Cbz = O=C(OCc1ccccc1)*; CH2F = FC*

Tests used:
[1] = system: P. falciparum induced endothelial permeability of HLEC monolayer; assay: Endothelial barrier integrity assay (Evans Blue diffusion through HLEC monolayer); format: cell-based, human
Protocol: In order to measure the effect of treatments on pre-exposed pRBCs endothelial cells, we developed a method based on Evans Blue diffusion through endothelial monolayer. Briefly HLEC were raised on Transwell Permeable supports (polyester membrane, 3 μm pore size, 6.5 mm diameter, Corning Incorporated Life Sciences) until confluence in M199 medium. Mature forms of 3D7 P. falciparum clone were then harvested from culture and adjusted at 1% of hematocrit and 50% of parasitemia before 4 hours co-incubation at 37° C. 5% CO2. After PRBC exposure, endothelial cell monolayers were treated 20 hours with Fasudil (1 μM or 30 μM). […] Lower compartments were finally collected for optical density analysis at 630 nm of diffused Evans Blue, using a standard microtiter plate reader (Bio-Tek™ EL311SX, Instruments Inc).
Briefly, P. falciparum cytoadherence effect on endothelial barrier function was assessed by culturing HLEC in Transwell inserts until confluence before exposing them 4 hours to mature forms of pRBC as above. The quantity of Evans Blue collected in lower compartments was markedly higher in pRBC/HLEC co-incubation conditions than in control RBC/HLEC (p<0.01) or non-exposed endothelial cell conditions (p<0.01). […]
Briefly, HLEC were cultured in Transwell inserts until confluence. […] Endothelial barrier integrity was assessed as described above.

[2] = system: NF-kappaB nuclear translocation in HLEC; assay: NF-kappaB P65 nuclear translocation (endothelial activation) in pRBC-exposed HLEC; format: cell-based, human; details: Fasudil 30 μM added concomitantly with pRBC, 6 hours, P<0.005 (FIG. 8)
Protocol: Briefly, HLEC were cultured in 8-chambers Labtek plates and exposed to pRBC during 6 hours at 1% of hematocrit and 50% of parasitemia. Rho-kinase inhibitor Fasudil was added concomitantly with pRBC at 30 μM. TNFβ at 20 ng/ml was used as a positive control of NF-kappaB nuclear translocation. Cells were then fixed and permeabilized for immunostaining with primary anti-NF-kappaB P65 subunit antibody and secondary FITC-anti-mouse IgG antibody. Nuclei were stained with diamidino-phenylindole (DAPI). After immunostaining of NF-kappaB P65 subunit, results were analysed by fluorescence microscopy and the number of activated HLEC (cells with complete but not partial migration nuclear P65 staining) per each condition (n=4) was counted (FIG. 8).

RhoA/Rho-kinase pathway = assay: G-LISA RhoA/Rho-kinase pathway activation assay in HLEC co-incubated with P. falciparum pRBC; format: cell-based, human; details: Fasudil 30 μM, 24 hours pRBC-contact co-incubation with HLEC, compared to pRBC alone, p<0.05 (FIG. 2)
Protocol: Activity of RhoA and its downstream effector Rho-kinase was assessed using G-LISA™ RhoA Activation Assay Biochem Kit purchased from Cytoskeleton (Denver, Colo.). The principle of the assay is to determine the amount of active GTP-bound RhoA extracted from cultured cells with a Rho-GTP-binding protein coated 96-well plate and final detection with immunoreagents. Briefly, HLEC were cultured in 6-well plates until 50-70% confluence as recommended by the manufacturer and exposed to P. falciparum infected erythrocytes or non infected erythrocytes at 1% of hematocrit and 50% of parasitemia. When used, Fasudil was added concomitantly with parasites at 30 μM. After 24 hours of incubation cells were washed and ice-cold lysed in phosphate buffer saline containing protease inhibitors. Cell lysates were then clarified by centrifugation at 4° C. 10,000 rpm for 2 min before measurement of protein concentrations. Cell extracts were equalized with lysis buffer to give identical protein concentrations before incubation in Rho-GTP affinity plate for 30 min at 4° C. […]
Briefly, RhoA activity in HLEC co-incubated during 24 hours with P. falciparum infected red blood cells (pRBC) or non infected red blood cells (RBC) was measured using the G-LISA™ RhoA activation kit (Cytoskeleton, Denver Colo.) as described in the Materials and Methods section.

[3] = system: P. falciparum-induced apoptosis of human lung endothelial cells (HLEC); assay: APOPercentage quantitative apoptosis assay, pRBC/HLEC co-incubation; format: cell-based; details: 24 hours pRBC exposure, purple dye pixel number (FIG. 4)
Protocol: Endothelial apoptosis was quantitatively assessed using APOPercentage™ dye purchased from Biocolor Ltd. (Belfast, Northern Ireland). The assay uses a purple-red colour dye that is selectively incorporated into apoptotic but not necrotic cells. Unilateral uptake of the dye occurs through phosphatidylserines of the outer membrane of cells that undergo apoptosis. Endothelial cells were cultured in 6-well plates until confluence before exposure to P. falciparum infected erythrocytes during 24 hours. HLEC were incubated for 1 hour with the Apopercentage dye (1/20) before co-incubation time is reached and delicately washed 3 times with PBS. Apoptosis was then quantified by Analytical Digital Photomicroscopy (ADP): for each experiment 4 representative fields of each well of cell cultures were photographed using inverted phase contrast microscope coupled with a digital camera. Images were then transferred to a computer and the level of apoptosis was expressed as a red pixel number counted by Adobe® Photoshop®.
Briefly, APOPercentage™ was used as a mean to quantify induced apoptosis and the effect of Fasudil on cell survival during pRBC/HLEC co-incubations by quantitatively assessing the […] of purple red dye by apoptotic HLEC using Analytical Digital Photomicroscopy (ADP). […]

Row | Structure (SMILES) | quantity of Evans Blue marker in lower compartment (OD 630 nm) ([1]; HLEC exposed 4 hours to pRBC, then 30 μM Fasudil for 20 hours, vs HLEC and pRBC, p<0.01 (FIG. 6)) | P. falciparum-induced endothelial activation (% cells with nuclear NF-kappaB P65) [2] | activated RhoA concentration ([Rho-GTP], OD 490 nm) (RhoA/Rho-kinase pathway) | decrease in apoptosis of pRBC-exposed HLEC compared to non treated cells ([3]; 1 μM Fasudil) [fold] | decrease in apoptosis of pRBC-exposed HLEC compared to non treated cells ([3]; 30 μM) [fold] | quantity of Evans Blue in the lower compartment (OD 630 nm) ([1]; pRBC/HLEC co-incubation in the presence of z-vad 10 μM or 100 μM (FIG. 5))
1 | O=S(=O)(c1cccc2cnccc12)N1CCCNCC1 [Fasudil] | significantly lower | significantly reduces | significant decrease | 1.4 | 4.1 | –
2 | COC(=O)C[C@H](NC(=O)[C@H](C)NC(=O)[C@@H](NC(=O)OCc1ccccc1)C(C)C)C(=O)CF [z-vad, Z-VAD-fmk] (Cbz-Val-Ala-Asp(OMe)-CH2F) | – | – | – | – | – | significantly reduced
